One block for each molecule: values may come before it.
Legend:
Assay type in all cases: physicochemical
[1] = Rates of electron transfer
[2] = Cyclic voltammetry in N2 purged 0.1 M NaCl aqueous solutions; conditions: 1 mM
Method: Cyclic voltammetry experiments were carried out at 25° C. in N2 purged 0.1 M NaCl aqueous solutions with a Metrohm Eco Chemie Autolab PGSTAT12 potentiostat, working on GPES 4.9 software. A three-electrode configuration was used with a 3 mm or 1.6 mm glassy carbon working electrode, a platinum counter electrode, and RE-5B Ag/AgCl BASI reference electrode. The glassy carbon electrode was polished before each measurement using a 0.05 μm alumina-H2O slurry on a polishing cloth. CV was performed at 1 mM concentrations of the respective compound using a scan rate of 20 mV s^−1.

[3] = In situ DOSY NMR of flowing electrolyte at various SOCs; conditions: diffusivity
Method: Pseudo-2D NMR experiments were performed on the flowing electrolyte solution by direct excitation with a 90° radiofrequency pulse. Each NMR spectrum is acquired by collecting eight free induction decays with a recycle delay of 15 s. The pulse width for a 90° pulse was 27 μs at 30 W. All spectra were referenced to the water chemical shift at 4.79 ppm. NMR data were processed using TopSpin 3.6.3 (Bruker). EPR data were processed using EasySpin version 5.2.30. Electrochemical data were processed using EC-lab 11.36 (BioLogic).
The flow was stopped during the acquisition period (12 min) to carry out the DOSY NMR.
In situ DOSY NMR experiments carried out for 10, 11, and 13 at 0%, 50%, and 100% SOC (Table 1).

[4] = EPR and CV modelling studies of redox equilibria (comproportionation, π-dimerisation); conditions: for Kc from CV: comproportionation equilibrium constant from CV curve fitting; for Kd: equilibrium constant of π-dimerisation of singly reduced form, estimated at 50% SOC; for Kc, obs from EPR: observed comproportionation equilibrium constant, fit of spin counting radical fraction
Method: An analysis of compounds 10, 11, and 13 associated redox equilibria was carried out. Expressing the two single electron reductions as a comproportionation equilibrium with an equilibrium constant of comproportionation, Kc, an equation for radical fraction as a function of battery SOC was obtained.
The difference between redox events is related to the comproportionation equilibrium constant Kc by:
For the compounds comproportionation equilibrium:
fits to experimental radical concentration data were obtained by:
Where n is the number of electrons that have been removed from the system, starting from 100% SOC and x is the fraction of radicals.
For π-dimerisation equilibria, Kd values were estimated as follows. At 50% SOC, 1 electron equivalent of the starting concentration of viologen, V0, has been added to create reduced species, thus giving the previous result:
As the initial concentration (V0), Kc and the radical concentration (V^3+·) at this state of charge is known, the dimerisation constant can be calculated with:
This equation was used to fit experimental radical fraction data obtained by the EPR-based method of spin counting, from which the observed comproportionation equilibrium constant Kc,obs was extracted. Upon fitting, Kc,obs values of 0.75, 0.021 and 0.0021 were found for 10, 11, and 13, respectively (Table 2).
The equation was also used for CV curve fitting, from which much better agreement with experimental data was obtained. Relating the difference in first and second redox events obtained by CV curve fitting to Kc, ‘true’ Kc values could be estimated and compared to Kc,obs values. Respective Ko values for 10, 11, and 13 were 3.2×10^5, 1.3 and 2.9 (see Table 2)—substantially higher than the Kc,obs values. […] The strongest candidates for these are dimerisation equilibria.

[5] = Additional cyclic voltammetry under nitrogen and under air; conditions: 1 mM, 0.1 M NaCl
Method: Cyclic voltammetry experiments were carried out for aqueous solutions of compound 20 and 10 at 25° C. and a concentration of 1 mM in 0.1 M NaCl with a Metrohm Eco Chemie Autolab PGSTAT12 potentiostat, working on GPES 4.9 software. Where the CV was carried out under nitrogen the solution was purged with nitrogen. A three-electrode configuration was used with a 3 mm glassy carbon working electrode, a platinum counter electrode, and RE-5B Ag/AgCl BASI reference electrode. The glassy carbon electrode was polished before each measurement using a 0.05 μm alumina-H2O slurry on a polishing cloth. CV was performed using a scan rate of 20 mV s^−1.

redox reversibility by cyclic voltammetry [2]: reversible redox processes
reversible potential, second reduction ([2]; vs SHE, 25° C., 20 mV s^−1): −0.67 V
Compound: C[N+](C)(C)CCC[n+]1ccc(-c2ccc(-c3cc[n+](CCC[N+](C)(C)C)cc3)s2)cc1 [Compound 17]
rate of electron transfer k0 [1]: 0.0028 cm/s

D at 0% SOC [3]: 2.8 ± 0.1 ×10^−10 m^2 s^−1
D at 50% SOC [3]: 1.9 ± 0.2 ×10^−10 m^2 s^−1
D at 100% SOC [3]: 2.1 ± 0.5 ×10^−10 m^2 s^−1
average Kc extracted from the radical concentration [4]: 0.002
Kc from CV [4]: 2.9
Kd [4]: 76 mM⁻¹
Kc, obs from EPR [4]: 0.0021
redox reversibility by cyclic voltammetry [2]: reversible redox processes
Compound: C[N+](C)(C)CCC[n+]1ccc(-c2ccc3cc(-c4cc[n+](CCC[N+](C)(C)C)cc4)ccc3c2)cc1 [Compound 13]

Compound: C[N+](C)(C)CCC[n+]1ccc(-c2ccc3ccc(-c4cc[n+](CCC[N+](C)(C)C)cc4)cc3c2)cc1 [Compound 14]
redox reversibility by cyclic voltammetry [2]: does not have a reversible potential

Compound: O=O [Compound O2, dioxygen]
rate of electron transfer k0 [1]: 0.00084 cm/s

D at 0% SOC [3]: 3.1 ± 0.1 ×10^−10 m^2 s^−1
D at 50% SOC [3]: 2.4 ± 0.2 ×10^−10 m^2 s^−1
D at 100% SOC [3]: 1.6 ± 0.1 ×10^−10 m^2 s^−1
average Kc extracted from the radical concentration [4]: 0.2
Kc from CV [4]: 1.3
Kd [4]: 11 mM⁻¹
Kc, obs from EPR [4]: 0.021
redox reversibility by cyclic voltammetry [2]: reversible redox processes
Compound: C[N+](C)(C)CCC[n+]1ccc(-c2ccc(-c3cc[n+](CCC[N+](C)(C)C)cc3)cc2)cc1 [Compound 11]
rate of electron transfer k0 [1]: 0.0198 cm/s

redox reversibility by cyclic voltammetry [2]: reversible redox processes
Compound: C[N+](C)(C)CCC[n+]1ccc(-c2ccc(-c3cc[n+](CCC[N+](C)(C)C)cc3)c3ccccc23)cc1 [Compound 12]

redox reversibility by cyclic voltammetry [2]: does not have a reversible potential
Compound: C[N+](C)(C)CCC[n+]1ccc(-c2cccc(-c3cc[n+](CCC[N+](C)(C)C)cc3)n2)cc1 [Compound 19]

redox reversibility by cyclic voltammetry [2]: electrochemically irreversible
Compound: C[N+](C)(C)CCC[n+]1ccc(-c2ccc(-c3ccc(-c4cc[n+](CCC[N+](C)(C)C)cc4)cc3)cc2)cc1 [Compound 16]

redox reversibility by cyclic voltammetry [2]: reversible redox processes
Compound: C[N+](C)(C)CCC[n+]1ccc(-c2ccc(-c3ccc(-c4cc[n+](CCC[N+](C)(C)C)cc4)s3)s2)cc1 [Compound 18]

redox reversibility by cyclic voltammetry [2]: electrochemically irreversible
Compound: C[N+](C)(C)CCC[n+]1ccc(-c2c3ccccc3c(-c3cc[n+](CCC[N+](C)(C)C)cc3)c3ccccc23)cc1 [Compound 15]

Compound: C[N+](C)(C)c1ccc(-[n+]2ccc(-c3cc[n+](-c4ccc([N+](C)(C)C)cc4)cc3)cc2)cc1 [Compound 20]
tolerance to oxygen (voltammogram under nitrogen vs under air) [5]: highly tolerant to the presence of oxygen
reversible reduction potential, first ([5]; vs SHE, 25° C., 20 mV s^−1): −0.147 V
reversible reduction potential, second ([5]; vs SHE, 25° C., 20 mV s^−1): −0.386 V

Compound: C[N+](C)(C)CCC[n+]1ccc(-c2cc[n+](CCC[N+](C)(C)C)cc2)cc1 [Compound 10]
D at 0% SOC [3]: 3.6 ± 0.1 ×10^−10 m^2 s^−1
D at 50% SOC [3]: 3.6 ± 0.2 ×10^−10 m^2 s^−1
D at 100% SOC [3]: 3.4 ± 0.1 ×10^−10 m^2 s^−1
average Kc extracted from the radical concentration [4]: 0.7
Kc from CV [4]: 3.2×10^5
Kd [4]: 0.28 mM⁻¹
Kc, obs from EPR [4]: 0.75
redox reversibility by cyclic voltammetry [2]: reversible redox processes
reversible potential, first reduction ([2]; vs SHE, 25° C., 20 mV s^−1): −0.35 V
reversible potential, second reduction ([2]; vs SHE, 25° C., 20 mV s^−1): −0.68 V

From patent US20260221482A1, “REDOX FLOW BATTERY” (CAMBRIDGE ENTERPRISE LIMITED, priority 2023, published 2026)
